Reference: PubChem BioAssay AID380

Molecular target: Adenylate kinase 4, mitochondrial (Homo sapiens) (UniProt P27144)
Assay: ligand-induced stabilization of human AK3 (AK4) – biophysical, DSF, SYPRO orange (AID 380)
Settings: recombinant protein, DSF SYPRO orange thermal shift; at 5 µM; protein 1 µM; buffer 10 mM HEPES; active compounds read high

Adenylate kinase 4, mitochondrial (Homo sapiens), sequence (P27144 whole entry, looked up): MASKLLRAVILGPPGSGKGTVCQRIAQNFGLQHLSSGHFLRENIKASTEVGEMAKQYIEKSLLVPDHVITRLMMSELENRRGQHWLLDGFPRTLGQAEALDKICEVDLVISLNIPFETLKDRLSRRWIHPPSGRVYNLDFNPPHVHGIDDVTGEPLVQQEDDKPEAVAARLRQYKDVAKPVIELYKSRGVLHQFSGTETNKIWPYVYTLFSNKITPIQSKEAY

Structure (SMILES): Nc1ncnc2c1ncn2[C@@H]1O[C@H](COP(=O)(O)OP(=O)(O)OP(=O)(O)OP(=O)(O)OP(=O)(O)OC[C@H]2O[C@@H](n3cnc4c(N)ncnc43)[C@H](O)[C@@H]2O)[C@@H](O)[C@H]1O
- Tm shift: 17.2 Celsius
